The values below come from patent US6372741B1, “Use of CSAID™ compounds as inhibitors of angiogenesis” (SmithKline Beecham Corporation, priority 1996, dated 2002).

For assay [1], the system named is angiogenesis in granuloma (vascular index). Nature of the assay: Murine air pouch granuloma model: vascular index by carmine vascular cast. Format: in vivo, mice. The settings on record: for maximum reduction in vascular index: Compound I at 50 mg.kg, bid, i.p., versus vehicle control. The source says: (§1) The murine airpouch granuloma model of chronic inflammation (Kimura et al., 1985, J. Pharmacobio-Dyn., 8:393-400; Colville-Nash et al.,1995, J. Pharm. and Exp. Ther., 274:1463-1472) whose disclosure is incorporated herein by reference in its entirety, is characterized by inflammatory cell influx, fibrous tissue proliferation and intense angiogenesis. […] In addition, angiogenesis can be accurately quantitated by a vascular casting method.
(§2) Murine air pouch granuloma model
(§3) Day-1, mice are anesthetized using Aerrane (isoflurane) gas (5%), after which 3mls of air is injected into the dorsal subcutaneous tissue using a 27 g needle. Mice are allowed to recover.
(§4) Day 0, mice are again anesthetized using Aerrane, once anesthetized 0.5 ml of Freunds complete adjuvant with 0.1% v/v croton oil is injected into the air pouch formed on Day-1. The animals also begin their dosing regime (number of days dependent upon study) with the animals typically receiving compound in 0.2 ml N,N, Dimethyl Acetoacetamide(DMA)(Sigma, St. Louis, Mo.)/Cremephor El (Sigma, St. Louis, Mo.)/saline (10/10/80) or other appropriate vehicle. The animals are allowed to recover and all subsequent dosing is performed on the animals in the absence of anesthetics.
(§5) Days 1-5, animals are dosed according to schedule.
[…] Louis, Mo.)/gelatin (5%)(Sigma, St. Louis, Mo.) solution. The animals are then sacrificed by lethal dose of anesthesia and chilled at 4 C for 2 hours prior to the removal of the granuloma tissue.
(§6) When the granuloma is removed it is weighed and then dried for 3 days at 45 C and reweighed. The dried tissue is then digested in 0.9 ml of a 0.05M phosphate buffer pH 7.0 containing 12 U/ml^−1 papain (Sigma, St. Louis, Mo.) and 0.33 g/L^−1 N-acetyl-1-Cysteine (Sigma, St. Louis, Mo.) at 57 C for 3 days. After 3 days digestion the carmine red is solubilized by the addition of 0.1 ml 5 mM NaOH. Samples are centrifuged and then filtered using 0.2 um acrodiscs. The carmine content is then determined against a carmine red standard curve (0.5 to 2 mg/ml) generated in extracted tissue from non carmine treated animals and read at 490 nm. Sample and standard values are determined using DeltaSoft Elisa analysis software (Biometallics Inc., Princeton, N.J.). The carmine content is then used to determine the vascular indexes for the various treatments, vascular index being the mg carmine dye/gm dry tissue.

For assay [2], the system named is granuloma size (dry weight). Kind of assay: Murine air pouch granuloma model: granuloma size by dry weight. Format: in vivo, mice. The settings on record: for effect on granuloma size as measured by dry weight: day 6 granuloma.
Text: as §1, §2, §3, §4, §5
Louis, Mo.)/gelatin (5%)(Sigma, St. Louis, Mo.) solution. […]
as §6, with “The carmine content is then used to determine the vascular indexes for the various treatments, vascular index being the mg carmine dye/gm dry tissue.” left out

The next assay relates to granuloma vasculature. Nature of the assay: Microscopic evaluation of vasculature in day 6 granulomas. It counts as in vivo. The settings on record: treated versus untreated mice. An excerpt: Angiogenesis in the granuloma was microscopically evaluated. The vasculature of day 6 granulomas from both untreated and compound I treated mice was examined. […] In fact, there was a almost no fine capillaries visible, only a few larger vessels.

In another assay the test system is TNF-α. Nature of the assay: TNF-α levels in granuloma tissue homogenates by ELISA. Format: in vivo, mice. The following applies: 30 mg/kg orally twice a day; day 7. The protocol: (§7) The levels of these cytokines over the course to granuloma development were measured to determine if the modulation of their expression by the compound correlated with angiogenesis. Cytokine levels were measured by ELISA using homogenates of granuloma tissue. TNF-α levels rose sharply, peaking at day 7 and dropping back down to moderate levels by day 14 (FIG. 2). […] Thus, the ability of the compound to block the sharp rise in TNF-α and IL-1β between days 5 and 7 correlated well with the ability of the compound to prevent the increase in vascular index that occurs over the same time points.
(§8) Tissue extracts were made by homogenizing granulomas in 0.5 ml 5 mM KH2PO4/0.1 gm wet tissue. IL-1β levels were determined using a Cytoscreen Immunoassay Kit (catalog #KMC 0012) from BioSource International, Camarillo, Calif. TNF-α levels were determined using the following assay: plates were coated with hamster anti-murine TNF-α antibody (Genzyme, Cambridge, Mass.), for 2 hours at 37° C., washed and blocked with a casein-BSA solution (5 gram/L for each) for 1 hour at 37° C., the samples were added and incubated at 4° C. overnight. […] The reaction was terminated with 25 ul 0.1M NaF per well, the O.D. read at 460 nm. Sample values for both ELISAs are calculated using DeltaSoft ELISA analysis software (Biomettalics Inc., Princeton, N.J.).

In a further assay the test system is IL-1β. Nature of the assay: IL-1β levels in granuloma tissue homogenates by ELISA. Format: in vivo, mice. The settings on record: 30 mg/kg orally twice a day; peak at day 7. The protocol: as §7, §8

Consider `Nc1nccc(-c2c(-c3ccc(F)cc3)ncn2C2CCNCC2)n1` [Compound I, 1-Piperidine-4-(4-fluorophenyl)-5-(2-aminopyrimidin-4-yl)imidazole], for which, in assay [1] (30 mg/kg orally twice a day from day 0, day 3), the “vascular index (VI) compared to control at day 3” value was “did not cause a significant reduction in VI”. Moreover, the “vascular index (VI) compared to control at days 5, 7 and 14” value in assay [1] (30 mg/kg orally twice a day from day 0, days 5, 7 and 14) is “lowered significantly”. Besides, in assay [1] (day 6 granuloma, dosing from induction), the “decrease in the vascular index (in words)” value was “significant and dose dependent decrease”. The “maximum reduction in vascular index” value in assay [1] (day 6 granuloma) was determined as 44%. The “granuloma size over time course” value in assay [2] (30 mg/kg orally twice a day from day 0, days 3, 5, 7 and 14) was “unaffected by the compound”. The “effect on granuloma size as measured by dry weight” value in assay [2] is “Neither Compound I nor medroxyprogesterone had an effect”. Also, the “vasculature of granuloma, microscopic evaluation” value in the assay with granuloma vasculature was “striking reduction in the vasculature”. Besides, in the assay with TNF-α, the “TNF-α levels in granuloma” value is given as “greatly reduced TNF-α levels”. Also, in the assay with IL-1β, the “IL-1β expression in granuloma” value is “effectively blocked the increased IL-1β expression”.
In the case of “medroxyprogesterone [reference compound]”, the “maximum reduction in vascular index” value in assay [1] (day 6 granuloma) was 50%. In addition, the “effect on granuloma size as measured by dry weight” value in assay [2] was “Neither Compound I nor medroxyprogesterone had an effect”.
